This passage reports IC50 results from BindingDB's records for doi:10.1021/cb900195c (University of Pittsburgh, 2009).

In experiment [1] the target is Tyrosine-protein kinase HCK (Homo sapiens, UniProt P08631). The experiment can be described thus: In Vitro Kinase Assay. Conditions: 25 °C. From the text:
(§1) In vitro kinase activity of Nef-Hck complex and Hck alone using Z'-lyte kinase assay system and Tyr2 peptide substrate from Invitrogen.

Experiment [2] concerns the target Protein Nef/Tyrosine-protein kinase HCK (Homo sapiens, UniProt P03406+P08631). The experiment can be described thus: In Vitro Kinase Assay. As to conditions: 25 °C.
Source text: as §1

Chain of Protein Nef/Tyrosine-protein kinase HCK (P08631 whole entry, other chains not shown): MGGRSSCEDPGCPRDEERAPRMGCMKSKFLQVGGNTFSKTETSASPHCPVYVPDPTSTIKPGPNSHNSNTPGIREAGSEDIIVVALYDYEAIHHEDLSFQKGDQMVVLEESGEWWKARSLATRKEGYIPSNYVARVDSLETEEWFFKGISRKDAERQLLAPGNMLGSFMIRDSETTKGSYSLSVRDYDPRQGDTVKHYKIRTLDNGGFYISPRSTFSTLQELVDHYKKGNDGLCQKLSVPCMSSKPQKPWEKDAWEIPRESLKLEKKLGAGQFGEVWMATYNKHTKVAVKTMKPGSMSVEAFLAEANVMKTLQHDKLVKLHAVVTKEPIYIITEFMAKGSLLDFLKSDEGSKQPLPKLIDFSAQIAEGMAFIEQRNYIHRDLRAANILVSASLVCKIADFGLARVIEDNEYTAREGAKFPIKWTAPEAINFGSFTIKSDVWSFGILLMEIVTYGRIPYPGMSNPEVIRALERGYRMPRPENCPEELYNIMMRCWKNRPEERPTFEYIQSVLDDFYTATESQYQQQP
Chain of Tyrosine-protein kinase HCK (P08631 whole entry): as the sequence (P08631 whole entry, other chains not shown) above

For the compound `OCCCCNc1ncnc2oc(-c3ccccc3)c(-c3ccccc3)c12` [DFP-4AB], the IC50 in experiment [1] was above 30 µM; in experiment [2], 16 µM.

Regarding `c1ccc(-c2oc3ncnc(NCCCc4ccco4)c3c2-c2ccccc2)cc1` [DFP-4APF], the IC50 in experiment [1] is above 30 µM; in experiment [2] it was 2 µM.

As for `OCCCNc1ncnc2oc(-c3ccccc3)c(-c3ccccc3)c12` [DFP-4AP], the IC50 was 12.8 µM in experiment [1] and 5.1 µM in experiment [2].

With `Nc1ncnc2oc(-c3ccccc3)c(-c3ccccc3)c12` [DFP-4A], the IC50 in experiment [1] and in experiment [2] was above 30 µM throughout.
